Here are results for eight compounds from patent publication US9056104B2, “Dynamic inhibitors of heat shock protein 90” (THE UNIVERSITY OF KANSAS, priority 2011, dated 2015).

Each structure is given as a SMILES string. Read-outs that look alike come from different tables or passages of the source.

One series relates to cancer cells. As to conditions: cited from earlier work; for IC50: previously found, background, read-out: IC50 against cancer cells (anti-proliferative activity).
Series [1] relates to SKBr3 (estrogen receptor negative, Her2 over-expressing breast cancer cells). Briefly: Anti-proliferative activity against SKBr3 cells. As to conditions: mean ± SD. Format: cell-based. As to the method:
(§1) Once synthesized, the library of coumermycin A1 analogs containing the olefinic and saturated linkers, were evaluated for anti-proliferative activity against SKBr3 (estrogen receptor negative, Her2 over-expressing breast cancer cells), MCF-7 (estrogen receptor positive breast cancer cells), A549 (human lung adenocarcinoma epithelial), HT29 (Human colon adenocarcinoma grade II), and PC3mm2 (androgen receptor insensitive prostate cancer) cell lines. […] As shown, X is at the 6 position and Y is at the 8 position.

For series [2], the system named is A549 (human lung adenocarcinoma epithelial). The experiment in a line: Anti-proliferative activity against A549 cells. Format: cell-based. Here is the method:
as §1, with “lines. The activities produced provide insight into the optimal distance between binding sites and provide rationale for subsequent analog design.” for “lines.”

The test system of series [3] is breast cancer (SKBr3 and MCF7) cell lines. The experiment in a line: Anti-proliferative activity against breast cancer cell lines (collective statements). Format: cell-based. The note with it: versus Compound 68. As to the method: as §1, with “lines. The activities produced provide insight into the optimal distance between binding sites and provide rationale for subsequent analog design.” for “lines.”
(§2) The first series of analogs included compounds with simplified moieties in lieu of the noviose sugar, while subsequent analogs included varying coumarin, noviose, and tether modifications. Many of these coumermycin A1 analogs manifested potent anti-proliferative activity that correlated directly to HSP90 inhibition as evidenced by the degradation of HSP90-dependent client proteins. Replacement of the laborious, stereochemical complex, and expensive noviose sugar with commercially available piperidine moieties produced compounds that manifested ˜100-fold increase in antiproliferative activities.

Series [4] relates to PC3mm2 (androgen receptor insensitive prostate cancer). Briefly: Anti-proliferative activity against PC3mm2 cells. It counts as cell-based. Here is the method: as §1, with “lines. The activities produced provide insight into the optimal distance between binding sites and provide rationale for subsequent analog design.” for “lines.”
The test system of series [5] is MCF-7 (estrogen receptor positive breast cancer cells). The experiment in a line: Anti-proliferative activity against MCF-7 cells. Format: cell-based. The note with it: mean ± SD. Here is the method:
as §1

Series [6] relates to HT29 (Human colon adenocarcinoma grade II). The experiment in a line: Anti-proliferative activity against HT29 cells. It counts as cell-based. Here is the method:
as §1, with “lines. The activities produced provide insight into the optimal distance between binding sites and provide rationale for subsequent analog design.” for “lines.”

Series [7] has as its system SKBr3, MCF-7, A549, HT29 and PC3mm2 cell lines. The experiment in a line: Anti-proliferative activity, cell lines not specified. Format: cell-based. As to the method:
as §1, with “lines. The activities produced provide insight into the optimal distance between binding sites and provide rationale for subsequent analog design.” for “lines.”

The test system of series [8] is prostate cancer (PC3mm2, A549 and HT29) cell lines. Briefly: Anti-proliferative activity against prostate cancer cell lines (collective statements). Format: cell-based. As to the method:
as §1, with “lines. The activities produced provide insight into the optimal distance between binding sites and provide rationale for subsequent analog design.” for “lines.”
as §2

A further series is described as follows: Solubility in DMSO. Format: physicochemical.
Series [9] concerns HSP90-dependent client proteins (Her-2, Raf, Akt). Briefly: Western blot analyses of HSP90 client protein degradation in MCF-7 breast cancer cells. Format: cell-based. The note with it: MCF-7 lysates, 24 hour treatment, 5x and 1/2 of antiproliferative IC50. Here is the method:
Since actin is not dependent on HSP90 for its maturation, actin levels should remain constant after treatment with an HSP90 inhibitor and is therefore used as a control. […] L represents a concentration ½ of the anti-proliferative IC50 value while H represents a concentration 5 times greater than the anti-proliferative IC50 value. GDA (500 nM) represents a positive control, while DMSO (0), vehicle, serves as the negative control. […]

The test system of series [10] is prostate cancer (PC3mm2) cell lines. Briefly: Anti-proliferative activity against prostate cancer cell lines (collective statements). It counts as cell-based. The note with it: low nanomolar, prostate cancers; read-out: anti-proliferative activities against prostate cancers. Here is the method:
as §1, with “lines. The activities produced provide insight into the optimal distance between binding sites and provide rationale for subsequent analog design.” for “lines.”
as §2

[11] abbreviates: Table 4, read-out: Anti-Proliferation Activities of Biaryl Dimers, SKBr3.
The mark [12] stands for this setting: Table 4, read-out: Anti-Proliferation Activities of Biaryl Dimers, A549.
[13] abbreviates: Table 4, read-out: Anti-Proliferation Activities of Biaryl Dimers, PC3mm2.
Where [14] appears, read: Table 4, read-out: Anti-Proliferation Activities of Biaryl Dimers, MCF-7.
Setting [15] is: Table 4, read-out: Anti-Proliferation Activities of Biaryl Dimers, HT29.
The mark [16] stands for this setting: Table 2, read-out: Anti-Proliferation Activities of non-Noviosylated Olefin Dimers, SKBr3.
Where [17] appears, read: Table 2, read-out: Anti-Proliferation Activities of non-Noviosylated Olefin Dimers, A549.
Setting [18] is: Table 2, read-out: Anti-Proliferation Activities of non-Noviosylated Olefin Dimers, PC3mm2.
[19] abbreviates: Table 2, read-out: Anti-Proliferation Activities of non-Noviosylated Olefin Dimers, MCF7.
Setting [20] is: Table 2, read-out: Anti-Proliferation Activities of non-Noviosylated Olefin Dimers, HT29.
Where [21] appears, read: Table 5, read-out: Anti-Proliferation Activities Non-Noviosylated Biaryl Dimers, SKBr3.
Where [22] appears, read: Table 5, read-out: Anti-Proliferation Activities Non-Noviosylated Biaryl Dimers, MCF-7.

Turning to `CO[C@@H]1[C@@H](OC(N)=O)[C@@H](O)[C@H](Oc2ccc3c(O)c(NC(=O)c4ccc(O)c(CC=C(C)C)c4)c(=O)oc3c2C)OC1(C)C` [novobiocin], the IC50 with cancer cells is approximately 700 µM.

As for `COc1ccc(C(=O)Nc2cc3ccc(OC4OC(C)(C)C(OC)C(O)C4O)c(C)c3oc2=O)cc1-c1cc(C(=O)Nc2cc3ccc(OC4OC(C)(C)C(OC)C(O)C4O)c(C)c3oc2=O)ccc1OC` (stereo not shown) [Compound 66], the IC50 came to 1160 ± 210 nM in [1] (setting [11]); 36.8 µM in [2] (setting [12]); 36.7 µM in series [4] (setting [13]); 760 ± 140 nM in series [5] (setting [14]); 36500 nM in [6] (setting [15]). Also, the “fold more active than Compound 68 against breast cancer cell lines” value in series [3] is given as 2 fold.

Take `Cc1c(OC2CCN(C)CC2)ccc2cc(NC(=O)CC/C=C/CCC(=O)Nc3cc4ccc(OC5CCN(C)CC5)c(C)c4oc3=O)c(=O)oc12` [Compound 29]: the IC50 is 150 ± 10 nM in series [1] (setting [16]); 5.54 µM in series [2] (setting [17]); 4.19 µM in [4] (setting [18]); 270 ± 20 nM in series [5] (setting [19]); 50 nM in series [6] (setting [20]). Further, the “fold more active than the 10-carbon linker (Compound 32)” value in series [7] (8-methyl coumarin series, versus Compound 32) is given as 2-3 fold.

For `COc1ccc(C(=O)Nc2cc3ccc(OC4OC(C)(C)C(OC)C(O)C4O)c(OC)c3oc2=O)cc1-c1cc(C(=O)Nc2cc3ccc(OC4OC(C)(C)C(OC)C(O)C4O)c(OC)c3oc2=O)ccc1OC` (stereo not shown) [Compound 70], the IC50 in series [1] (setting [11]) came to 910 ± 120 nM; in series [2] (setting [12]), 0.21 µM; in series [4] (setting [13]), 0.27 µM; in [5] (setting [14]), 880 ± 200 nM; in series [6] (setting [15]), 270 nM. Further, in series [8] (versus Compound 66), the “fold more active against prostate cancer cell lines than 8-Me analog Compound 66” value is 100-150 fold.

As to `COc1ccc(C(=O)Nc2cc3ccc(OC4CCN(C)CC4)c(C)c3oc2=O)cc1-c1cc(C(=O)Nc2cc3ccc(OC4CCN(C)CC4)c(C)c3oc2=O)ccc1OC` [Compound 71], the figures for the IC50 in [1] (setting [21]) and in series [5] (setting [22]) were 4980 ± 700 nM and 14200 ± 2300 nM, respectively. In “Solubility in DMSO”, the “solubility in DMSO” value was “inherent insolubility in DMSO”.

Turning to `Cc1c(OC2CCN(C)CC2)ccc2cc(NC(=O)CCC/C=C/CCCC(=O)Nc3cc4ccc(OC5CCN(C)CC5)c(C)c4oc3=O)c(=O)oc12` [Compound 32], the IC50 in [1] (setting [16]) is 890 ± 10 nM; in [2] (setting [17]) it was 0.22 µM; in [10] it was 200 to 400 nM; in series [4] (setting [18]) it was 0.44 µM; in [5] (setting [19]), 630 ± 30 nM; in [6] (setting [20]), 240 nM. Besides, the “degradation of Raf and Akt, Western blot” value in [9] was “caused degradation of Raf and Akt”. The “effect on Her2, Western blot” value in series [9] is given as “no effect on Her2”. In series [8] (versus other non-noviosylated dimers), the “fold more active than any other dimer against prostate cancers” value is listed as 10-20 fold.

Turning to `COc1ccc(C(=O)Nc2cc3ccc(OCCCN(C)C)c(C)c3oc2=O)cc1-c1cc(C(=O)Nc2cc3ccc(OCCCN(C)C)c(C)c3oc2=O)ccc1OC` [Compound 72], the IC50 in series [1] (setting [21]) was determined as 9500 ± 1200 nM; in series [2] (Table 5, read-out: Anti-Proliferation Activities Non-Noviosylated Biaryl Dimers, A549) it was 93.5 µM; in series [4] (Table 5, read-out: Anti-Proliferation Activities Non-Noviosylated Biaryl Dimers, PC3mm2), 52.3 µM; in series [5] (setting [22]), 11700 ± 1600 nM; in series [6] (Table 5, read-out: Anti-Proliferation Activities Non-Noviosylated Biaryl Dimers, HT29) it was 62700 nM. In addition, in series [7] (versus Compounds 65-70), the “fold less active than the corresponding noviosylated coumarin-containing analogs (Compounds 65-70)” value is on record as approximately 10 fold. For the same compound, the “solubility in DMSO” value in the series “Solubility in DMSO” was “inherent insolubility in DMSO”.

As for `CO[C@H]1[C@H](OC(=O)c2ccc(C)[nH]2)[C@H](O)[C@@H](Oc2ccc3c(O)c(NC(=O)c4c[nH]c(C(=O)Nc5c(O)c6ccc(O[C@H]7OC(C)(C)[C@@H](OC)[C@H](OC(=O)c8ccc(C)[nH]8)[C@@H]7O)c(C)c6oc5=O)c4C)c(=O)oc3c2C)OC1(C)C` [coumermycin A1], in the series on cancer cells, the IC50 is 70 µM. In the series on cancer cells (relative to novobiocin), the “fold increase in anti-proliferative activity over novobiocin” value is recorded as 10 fold.
